{"source": "patent US5567704A", "about": "“R-enatiomerically pure hydroxylated xanthine compounds to treat baldness” (priority 1995, dated 1996)", "key": {"U937 cells": {"test_system": "U937 cells", "test": "adhesion of IL-1α activated U937 cells to HUVEC", "format": "cell-based, human", "conditions": "250 μM pre-treatment of U937 cells, FIG. 22", "method": "(§1) Murine peritoneal exudate cell macrophages (PEC) were isolated by perfusion of mouse peritoneum and plated into 96-well trays at 5×10^5 cells per well. Cells were stimulated with 5 μg/ml Salmonella abortus equi -derived endotoxin (LPS; Sigma Chemical Co., L-1887) or […] IL-1α (Genzyme; Cambridge, Mass.) with or without the addition of CT1501R added to the cultures one hour prior to addition of the stimulus. At various times thereafter, supernatants were removed and levels of either TNF-α or IL-1α were assayed using commercial 96-well microtiter immunoassay kits (Genzyme; TNF; Endogen, Boston, Mass.; IL-1α) according to manufacturer's specifications. For the adhesion studies, early passage human umbilical vein endothelial cells (HUVEC) were obtained. from commercial suppliers (Clonetics, San Diego, Calif. or Cell Systems, Seattle, Wash.) and cultured in defined, Hepes buffered, serum free medium (Cell Systems, cat 301-180) supplemented with acidic FGF (Cell Systems cat 401-111). 4000 cells were plated into each well of a 96-well microtiter plate and allowed to incubate for 72 hrs at 37° C. […] After addition of […] Hanks Balanced Salt Solution (HBSS), the microtiter plate was then analyzed on a Millipore Cytofluor fluorescent plate reader (excitation 488 nm; emission 525 nm). […]"}, "[1]": {"test_system": "TNF-α release from IL-1α activated PEC", "test": "TNF-α release from IL-1α-activated peritoneal macrophages (ELISA)", "format": "cell-based, murine", "conditions": "Mus musculus, Peritoneal macrophage, 50 ng/ml IL-1α, 24, 48 or 72 hrs, FIG. 20, read-out: inhibition of induced levels of TNF-α", "method": "as §1"}, "stromelysin/PUMP-1": {"test_system": "stromelysin/PUMP-1", "test": "PUMP-1 activity induced by IL-1", "format": "cell-based", "conditions": "induced by 100 U/ml of IL-1", "excerpt": "Metalloproteases mediate tissue damage such as glomerular diseases of the kidney, joint destruction in arthritis, and lung destruction in emphysema, and play a role in tumor metastases. Three examples of metalloproteases include a 92 kD type V gelatinase induced by TNF, IL-1 and PDGF plus bFGF, a 72 kD type IV collagenase that is usually constitutive and induced by TNF or IL-1, and a stromelysin/PUMP-1 induced by TNF and IL-1. The inventive compounds can inhibit TNF or IL-1 induction of the 92 kD type V gelatinase inducable metalloprotease. Moreover, CT 1501R reduced PUMP- 1 activity induced by 100 U/ml of IL-1 to 15% of its control levels. […] Accordingly, the inventive compounds prevent induction of certain metalloproteases induced by IL-1 or TNF and are not involved with constitutively produced proteases (e.g., 72 kD type IV collagenase) involved in normal tissue remodeling."}, "[2]": {"test_system": "PBMC (peripheral blood mononuclear cells)", "test": "two-way mixed lymphocyte reaction (MLR)", "format": "cell-based, human", "conditions": "FIG. 1", "excerpt": "Various in vitro assays can be used to measure effects of the inventive compounds to module immune activity and have antitumor activity using a variety of cellular types. For example, a mixed lymphocyte reaction (MLR) provides a valuable screening tool to determine biological activity of each inventive compound. In the MLR, PBMCs (peripheral blood mononuclear cells) are obtained by drawing whole blood from healthy volunteers in a heparinized container and diluted with an equal volume of hanks balanced salt solution (HBSS). This mixture is layered on a sucrose density gradient, such as a Ficoll-Hypaque® gradient (specific gravity 1.08), and centrifuged at 1000× g for 25 minutes at room temperature or cooler. PBMC are obtained from a band at a plasma-Ficoll interface, separated and washed at least twice in a saline solution, such as HBSS. Contaminating red cells are lysed, such as by ACK lysis for 10 min at 37° C., and the PBMCs are washed twice in HBSS. The pellet of purified PBMCs is resuspended in complete medium, such as RPMI 1640 plus 20% human inactivated serum. Proliferative response of PBMC to allogeneic stimulation is determined in a two-way MLR performed in a 96-well microtiter plate. […] At the conclusion of the incubation tritiated thymidine is added (for example, 1 μCi/well of 40 to 60 Ci/mmole) and proliferation determined by liquid scintillation counting. […]"}, "IL-6": {"test_system": "IL-6", "test": "mouse plasma IL-6 ELISA after endotoxin", "format": "in vivo", "conditions": "for Plasma IL-6: LPS + CT-1501R", "method": "For ELISA measurements of cytokine levels in plasma, blood was collected by retro-orbital or cardiac puncture of anesthetized mice, immediately centrifuged and the EDTA plasma stored at -70° C. Particulate free plasma was thawed on ice and cytokine levels determined utilizing commercial ELISA assays with normal mouse plasma used to generate standard curves. Murine tumor necrosis factor-α and interleukin-1αkits were purchased from Genzyme (Cambridge, Mass.) and Endogen (Boston, Mass.), respectively. Each data point was an average of two ELISA measurements made from EDTA […] pooled from three mice. The data summarized in Table 3 were compiled from two independent experiments; data from Table 4 and 5 were from single experiments of three mice per data point.\nIn particular, peak levels observed at 6, 12 and 18 hours post endotoxin were decreased 1.2, 4.3 and 3.2-fold, respectively. Finally, IL-6 measurements were made in a similar manner (Table 6, FIG. 8)."}}, "data": [{"smiles": "C[C@@H](O)CCCCn1c(=O)c2c(ncn2C)n(C)c1=O", "note": "[CT1501R, (R)-1-(5-hydroxyhexyl)-3,7-dimethylxanthine]", "values": [{"measurement": "IL-1α mediated increase in adhesion of U937 cells to HUVEC", "setting": "U937 cells", "value": "effectively blocked the IL-1α mediated increase in adhesion to HUVEC to near background levels"}, {"measurement": "inhibition at 250 µM", "setting": "[1]", "value": "50 to 70", "unit": "%"}, {"measurement": "PUMP-1 activity, % of control levels", "setting": "stromelysin/PUMP-1", "value": 15, "unit": "%"}, {"measurement": "proliferative response of PBMC to allogeneic stimulation", "setting": "[2]", "value": "showed dose-response activity"}, {"measurement": "fold decrease of plasma IL-6", "setting": "IL-6; 3 hours post endotoxin", "value": 1.7, "unit": "fold"}, {"measurement": "fold decrease of plasma IL-6", "setting": "IL-6; 6 hours post endotoxin", "value": 2.0, "unit": "fold"}, {"measurement": "fold decrease of plasma IL-6", "setting": "IL-6; 12 hours post endotoxin", "value": 4.1, "unit": "fold"}, {"measurement": "Plasma IL-6", "setting": "IL-6; 0 hours post LPS", "value": 0, "unit": "ng/mL"}, {"measurement": "Plasma IL-6", "setting": "IL-6; 0.17 hours post LPS", "value": 0.14, "unit": "ng/mL"}, {"measurement": "Plasma IL-6", "setting": "IL-6; 0.5 hours post LPS", "value": 1, "unit": "ng/mL"}, {"measurement": "Plasma IL-6", "setting": "IL-6; 1 hour post LPS", "value": 31.8, "unit": "ng/mL"}, {"measurement": "Plasma IL-6", "setting": "IL-6; 3 hours post LPS", "value": 183, "unit": "ng/mL"}, {"measurement": "Plasma IL-6", "setting": "IL-6; 6 hours post LPS", "value": 121, "unit": "ng/mL"}, {"measurement": "Plasma IL-6", "setting": "IL-6; 12 hours post LPS", "value": 29.6, "unit": "ng/mL"}, {"measurement": "Plasma IL-6", "setting": "IL-6; 18 hours post LPS", "value": 19.8, "unit": "ng/mL"}, {"measurement": "Plasma IL-6", "setting": "IL-6; 24 hours post LPS", "value": 25.6, "unit": "ng/mL"}, {"measurement": "Plasma IL-6", "setting": "IL-6; 36 hours post LPS", "value": 1.64, "unit": "ng/mL"}, {"measurement": "Plasma IL-6", "setting": "IL-6; 48 hours post LPS", "value": 0.4, "unit": "ng/mL"}]}]}
